Test results reported in patent US20250017907A1, “METHOD FOR PREVENTING AND/OR TREATING LIVER FIBROSIS BY USING 6-METHOXYBENZOXAZOLINONE AND COIX LACHRYMA-JOBI L. EXTRACT COMPRISING 6-METHOXYBENZOXAZOLINONE” (Taichung District Agricultural Research and Extension …, priority 2023, published 2025).

How the values were obtained:
[1] = test system: TAA-induced liver fibrotic C57BL/6J mice; test: Hydroxyproline assay of liver tissue; type: in vivo; conditions: CX groups (20 and 50 mg/kg oral, 6 weeks); vs TAA group
Procedure: For tests of adlay extracts, mice were randomly divided into the following seven groups (n=6, per group): (1) No treatment group (NT, normal diet), (2) Thioacetamide group (TAA, 200 mg/kg, normal diet), (3) 10% adlay seed powder (ASP) group, (4) 1% adlay leaf powder (ALP) group, (5) 1% adlay seed polysaccharide (ASPS) group, (6) 0.025% adlay seed ethanolic extract (ASE) group and (7) 0.1% ASE group. NT group received pure saline, and other groups intraperitoneally injected with TAA dissolved into saline thrice a week.
For tests of CX, mice were randomly divided into the following four groups (n=8, per group): (1) NT group, (2) TAA group (200 mg/kg), (3) CX group (CX20, 20 mg/kg), and (4) CX group (CX50, 50 mg/kg). NT group received pure saline, and other groups intraperitoneally injected with TAA dissolved into saline thrice a week. Moreover, NT group and TAA group also received 5% propylene glycol, while CX groups received CX dissolved into 5% propylene glycol (prepared in 0.9% saline) by oral gavage once per day. […]
The procedure of hydroxyproline assay is as follows. The hydroxyproline, as an indirect index of the collagen content in the liver, was determined by a hydroxyproline assay kit and the testing procedures followed the manufacturer's protocol. […] The hydroxyproline content was measured at a wavelength of 558 nm on an ELISA reader (TECAN, Switzerland). […]

[2] = test system: TAA-induced liver fibrotic C57BL/6J mice; test: Oxidative stress indicator tests in liver (SOD, CAT, GSH, MDA); type: in vivo; conditions: 6 weeks, vs TAA group
Procedure: For tests of CX, mice were randomly divided into the following four groups (n=8, per group): (1) NT group, (2) TAA group (200 mg/kg), (3) CX group (CX20, 20 mg/kg), and (4) CX group (CX50, 50 mg/kg). NT group received pure saline, and other groups intraperitoneally injected with TAA dissolved into saline thrice a week. Moreover, NT group and TAA group also received 5% propylene glycol, while CX groups received CX dissolved into 5% propylene glycol (prepared in 0.9% saline) by oral gavage once per day.
To examine the effects of CX on liver fibrosis, this example established a TAA-induced liver fibrotic C57BL/6J mouse model. FIG. 6 is a schematic diagram of animal experiment design in 6-methoxybenzoxazolinone (6-MBOA) (CX) groups. For animal experiments, 6-week-old C57BL/6J mice were randomly divided into four groups including NT, TAA, CX20 (TAA+20 mg/kg CX), CX50 (TAA+50 mg/kg CX). (n=8 per group). Mice were given intraperitoneal injection of TAA thrice a week to induce liver fibrosis; they also received CX or the vehicle by oral gavage once per day. At the end of animal tests, mice were sacrificed at 12 weeks of age. Six-week-old mice were randomly divided into four groups, namely NT, TAA, CX20 and CX50 (FIG. 6). Among these groups, only the NT group was oral gavaged and administered with vehicle, the TAA group was oral gavaged with vehicle and administered with TAA, and the CX groups were oral gavaged with CX and administered with TAA. Oral gavage was performed once a day while intraperitoneal injection was given thrice a week; both oral gavage and intraperitoneal injection were continuously administered for six weeks. After that, the mice were sacrificed, and their liver tissues and serum were collected for subsequent analyses.
The procedure of oxidative stress indicator tests is as follows. The enzyme activity of catalase (CAT) and superoxide dismutase (SOD), the content of malondialdehyde (MDA), and the concentration of glutathione (GSH) in tissue were tested to examine changes in oxidative stress levels in TAA-induced liver fibrotic mice. […] All of the kits were commercial products, the working protocol followed the manufacturer's instructions. Briefly, the liver tissue was homogenized in ice-cold buffer and centrifuged at 4° C., then collected supernatant for analysis, finally, read the absorbance of samples with ELISA reader (TECAN, Switzerland).

COc1ccc2[nH]c(=O)oc2c1 [CX, 6-methoxybenzoxazolinone] was tested, and the liver hydroxyproline content [1] was “significantly lower”, the “liver CAT activity” value ([2]; CX20: 20 mg/kg oral) was “increased” and the “liver GSH content” value ([2]; CX20: 20 mg/kg oral) was “increased”. The “liver MDA content” value ([2]; CX20: 20 mg/kg oral) was “decreased”, the “liver CAT activity” value ([2]; CX50: 50 mg/kg oral) was “increased” and the “liver GSH content” value ([2]; CX50: 50 mg/kg oral) was “increased”. The “liver MDA content” value ([2]; CX50: 50 mg/kg oral) was “decreased” and the “liver SOD activity” value ([2]; CX50: 50 mg/kg oral) was “significantly increased”.
